What was measured:
[1] = target: T1, TRPM8 (transient receptor potential channel M8) (Rattus norvegicus, UniProt Q8R455); assay: agonist; format: cell-based
[2] = target: T1, TRPM8 (transient receptor potential channel M8); assay: aequorin luminescence calcium assay in CHO cells, inhibition of icilin; format: cell-based

T1 sequence (Q8R455 whole entry): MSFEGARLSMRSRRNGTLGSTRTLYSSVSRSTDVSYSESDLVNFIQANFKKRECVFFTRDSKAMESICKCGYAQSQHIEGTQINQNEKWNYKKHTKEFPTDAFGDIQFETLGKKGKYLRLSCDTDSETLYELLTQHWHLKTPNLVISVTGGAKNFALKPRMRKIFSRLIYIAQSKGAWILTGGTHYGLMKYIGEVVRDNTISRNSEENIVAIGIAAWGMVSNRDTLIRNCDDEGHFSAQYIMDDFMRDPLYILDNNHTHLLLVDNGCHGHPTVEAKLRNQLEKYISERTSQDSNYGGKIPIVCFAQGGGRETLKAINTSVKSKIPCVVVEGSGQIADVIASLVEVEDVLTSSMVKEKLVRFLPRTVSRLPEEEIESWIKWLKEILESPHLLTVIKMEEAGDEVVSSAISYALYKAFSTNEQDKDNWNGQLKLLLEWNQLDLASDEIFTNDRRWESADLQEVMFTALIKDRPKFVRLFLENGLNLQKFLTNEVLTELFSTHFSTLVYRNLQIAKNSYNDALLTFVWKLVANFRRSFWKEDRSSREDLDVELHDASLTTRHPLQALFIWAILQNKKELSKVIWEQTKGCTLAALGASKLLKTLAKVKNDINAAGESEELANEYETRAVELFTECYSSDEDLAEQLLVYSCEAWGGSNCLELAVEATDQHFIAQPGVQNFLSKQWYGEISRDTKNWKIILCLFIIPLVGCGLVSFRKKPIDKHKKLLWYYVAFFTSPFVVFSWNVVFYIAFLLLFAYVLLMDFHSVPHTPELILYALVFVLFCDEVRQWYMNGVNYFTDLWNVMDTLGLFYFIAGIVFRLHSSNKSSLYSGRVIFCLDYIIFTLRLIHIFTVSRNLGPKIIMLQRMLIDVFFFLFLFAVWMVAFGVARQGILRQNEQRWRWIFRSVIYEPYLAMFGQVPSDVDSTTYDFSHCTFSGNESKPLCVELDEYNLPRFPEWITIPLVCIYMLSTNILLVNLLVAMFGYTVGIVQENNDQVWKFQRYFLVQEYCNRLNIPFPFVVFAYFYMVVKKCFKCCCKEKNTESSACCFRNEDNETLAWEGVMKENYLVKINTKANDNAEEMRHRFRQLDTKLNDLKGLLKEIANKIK

Compound | agonist (1 uM) in aequorin luminescence calcium assay in CHO cells [1] | IC50 [2] [nM]
O=C1NC(c2cccc([N+](=O)[O-])c2)=CCN1c1ccccc1O [icilin] | inhibition of TRPM8 activation by icilin and cold in cultured CHO cells stably transfected with rat TRPM8 channel | –
AMG1161 | – | 23 ± 0.9

From PMC4635063 (Cephalalgia : an international journal of headache, 2015)
